# Source: patent EP0517126A1, “Use of diacetyl-splenopentin in chemotherapy and radiation therapy” (WOGEPHARM GmbH, priority 1991, dated 1992)
# No end group written: not given here.
# How the values were obtained:
# Format in all cases: in vivo, BALB/c-Mäuse
# [1] = tested on: Knochenmarkstammzellen; test: Agar colony test (CFU test) of bone marrow stem cells after sublethal X-ray irradiation, followed by DA-SP5; details: after single X-ray irradiation, DA-SP5 10 µg i.p. three times weekly, normal value 121 ± 23
# Description: (§1) Es wurde gefunden, daß als Folge einer Therapie mit Zytostatika bzw. durch eine Bestrahlungstherapie sich im Blut der entsprechend behandelten Patienten die Zahl immunologischer Abwehrzellen vermindert. Dies resultiert, weil durch die o. g. Therapie auch die Stammzellen des Knochenmarks (aus diesen entstehen die immunologischen Abwehrzellen) zytotoxisch geschädigt werden. Die Substanz DA-SP5 erhöht die Nachbildung von immunologischen Abwehrzellen aus Stammzellen des Knochenmarks (W. DIEZEL et al. (1989): DD-PS 268160 Al). Es hat sich gezeigt, daß DA-SP5 direkt die Proliferation unreifer Stammzellen des Knochenmarks beschleunigen kann bzw. die Wirkung des Kolonien-stimulierrenden Faktors GM-CSF synergistisch erhöht. Überraschenderweise wurde jetzt festgestellt, daß als Folge dieser Wirkung die zytotoxische Schädigung von Knochenmarkstammzellen (und damit die verminderte Entstehung immunologischer Abwehrzellen) durch Chemotherapeutika bzw. infolge Bestrahlung der Zellen, kompensiert werden kann. Die erfindungsgemäße Wirkung wurde dadurch festgestellt, indem BALB/c-Mäuse hochdosiert mit zytotoxischen (Zellproliferations-hemmenden) Therapeutika systemisch behandelt wurden. Anschließend erfolgte eine Therapie mit DA-SP5 bzw. es wurde lediglich 0,9%ige NaCl-Lösung (Kontrallgruppe) appliziert. Während dieser Therapie wurde untersucht, ob die DE-SP5-behandelten Tiere zeitlich eher befähigt wurden "Knochenmarkstammzell-Kolonien" entsprechend der Norm zu bilden. Eine diesbezüglich schnellere Bildung korreliert mit einer schnelleren Entstehung entsprechender immunologischer Abwehrzellen im Blut. In einer weiteren Versuchsserie wurden BALB/c-Mäuse subletal bestrahlt, und anschließend ebenfalls mit oder ohne DA-SP5 behandelt. Auch bei diesen Tieren wurde untersucht, ob sie zeitlich eher befähigt waren, "Knochenmarkzell-Kolonien" entsprechend der Norm zu bilden. Das erfindungsgemäß verwendete Mittel wurde in Mengen von 0,05mg bis 1,0 mg pro kg Körpergewicht verabreicht. […]
# [2] = tested on: Knochenmarkstammzellen; test: Agar colony test (CFU test) of bone marrow stem cells after dexamethasone treatment, followed by DA-SP5; details: after Dexamethason 150 mg/kg i.p. days +1 to +5, DA-SP5 10 µg i.p. three times weekly, normal value 121 ± 23
# Description: as §1
# [3] = tested on: Knochenmarkstammzellen; test: Agar colony test (CFU test) of bone marrow stem cells after methotrexate treatment, followed by DA-SP5; details: after Methotrexat 175 mg/kg days +1 to +5, DA-SP5 10 µg i.p. three times weekly, normal value 121 ± 23
# Description: as §1
substance,measurement,setting,value
"Ac-RK(Ac)EVY [DA-SP5, (N^α-acetyl-L-arginyl)-(N^ε-acetyl-L-lysyl)-L-glutamyl-L-valyl-L-tyrosin]",Kolonien pro Femur (x̄ ± s),[1]; Tag Nr.10 of DA-SP5 therapy,8 ± 6
same,Kolonien pro Femur (x̄ ± s),[1]; Tag Nr.20 of DA-SP5 therapy,116 ± 10
same,Kolonien pro Femur (x̄ ± s),[1]; Tag Nr.40 of DA-SP5 therapy,126 ± 12
same,Kolonien pro Femur (x̄ ± s),[2]; Tag Nr. 10 of DA-SP5 therapy,10 ± 8
same,Kolonien pro Femur (x̄ ± s),[2]; Tag Nr. 20 of DA-SP5 therapy,55 ± 21
same,Kolonien pro Femur (x̄ ± s),[2]; Tag Nr. 40 of DA-SP5 therapy,126 ± 18
same,Kolonien pro Femur (x̄ ± s),[3]; Tag Nr. 10 of DA-SP5 therapy,9 ± 6
same,Kolonien pro Femur (x̄ ± s),[3]; Tag Nr. 20 of DA-SP5 therapy,53 ± 24
same,Kolonien pro Femur (x̄ ± s),[3]; Tag Nr. 40 of DA-SP5 therapy,110 ± 20
